Laboratory results published in patent US20100113596A1, “Method for inhibiting liver fibrosis via retinoic acid derivative” (priority 2008, published 2010).

Experiments:
[1] = system: TGF-β-induced ROS in HSC-T6 cells; test: ROS assay on TGF-β1 and PL-treated HSC-T6 cells (DCFH-DA, flow cytometry); format: cell-based; details: pretreatment with 30˜300 nM PL, TGF-β1 2 ng/ml
Description: (§1) Cells were incubated with 2 ng/ml of TGF-β and PL for 5 hours and analyzed for the oxidation state using 7-dichlorodihydrofluorescein diacetate (DCFH-DA) as a fluorogenic probe and flow cytometer (FACSCalibur). The cells were recovered with 0.01% trypsin and the cellular fluorescence intensity was measured after 30 min incubation of 5 μM DCFHDA. For each analysis, 10,000 events were recorded. Cells were collected in 0.01% trypsin, fixed with 3.7% formaldehyde, permeabilized with 0.02% Triton X-100 in PBS, and stained for a-SMA as described previously. For detecting a-SMA using flow cytometry, cells were treated with 2 ng/ml of TGF-β and PL for 12 hours and immunostained with α-SMA-specific antibody (Santa Cruz) and FITC-conjugated secondary antibody (Molecular Probe). Then the cells were recovered and subjected to flow cytometer, and PL can effectively eliminate radicals as ROS decreased with increasing dosages of PL, as referred to FIG. 1.
ROS intermediates act as signaling molecules of TGF-β in regulation of inflammatory and fibrotic responses. Therefore, first select marker was to determine whether PL could be an antioxidant to block TGF-β-induced ROS in HSC-T6 cells. The intracellular oxidation state of the cell was analyzed by flow cytometry, when ROS were induced by TGF-β1 (2 ng/ml). […]

[2] = system: [Ca2+]i in TGF-β treated HSC-T6 cells; test: Measurement of cytosolic Ca2+ ([Ca2+]i) with fura-2; format: cell-based; details: HSC-T6 cells treated with PL, then TGF-β1 added; compared with positive control
Description: Trypsinized cells (10^6/ml) were recovered 4 h after culture with PL and loaded with 2 μM fura-2/acetoxy methyl (fura-2/AM) for 30 min at 25° C. before stimulating with TGF-β (2ng/ml). Cells were gently shaken for several seconds every 10 min to prevent re-attachment. Cells were washed and resuspended in Ca^2+-containing medium. Fura-2 fluorescence measurements were performed in a water-jacketed cuvette with continuous stirring at 25° C. Fluorescence was monitored with a Hitachi F-2500 fluorescence spectrophotometer by recording excitation signals at), and 380 nm and emission signals at 510 nm at 1-s intervals.
Therefore, we examined whether PL could change the concentration of [Ca^2+]i in TGF-β treated cells. Activation of HSC, the main source of liver collagen, involves the induction of α-SMA, conversing from quiescent to proliferation, and secretion of collagen. After treatment with PL, TGF-β1 was added to HSC-T6 cells and the [Ca^2+]i was measured immediately (FIG. 2). PL decreased the protein levels of α-SMA, which was detected by both flow cytometry and Western blot (FIG. 3). The results imply that a trace amount of PL is sufficient enough to block-[Ca^2+]i and down-regulate α-SMA expression.

α-SMA [3] = test: α-SMA expression in HSC-T6 cells (flow cytometry and Western blot); format: cell-based; details: TGF-β and PL, compared with positive control
Description: as §1
Liver tissues were homogenized in RIPA buffer and centrifuged as described; supernatant was taken as a whole-cell lysate. […]
Therefore, we examined whether PL could change the concentration of [Ca^2+]i in TGF-β treated cells. […] After treatment with PL, TGF-β1 was added to HSC-T6 cells and the [Ca^2+]i was measured immediately (FIG. 2). PL decreased the protein levels of α-SMA, which was detected by both flow cytometry and Western blot (FIG. 3). […]

collagen (Col 1A2) = test: Col 1A2 expression, immunostaining of HSC-T6 cells treated with TGF-β and PL; format: cell-based; details: HSC-T6 cells treated with TGF-β and 30, 150 or 300 nM PL for 4 hours
Description: It has been shown that TGF-β plays a major role in fibrogenesis via the activation of HSC. After the HSC-T6 cells were treated with TGF-β and PL for 4 hours, the cells were subjected to immunostaining and observed under a fluorescence microscopy, as shown in FIG. 4.

α-SMA [4] = test: α-SMA expression in liver tissue of TGF-β1 transferred fibrotic mice; format: in vivo; details: PL i.p. 30, 150 or 300 μg/kg, compared with the positive controls
Description: (§2) The eight-week-old BALB/c mice were fed ad libitum standard laboratory chow and water with or without 25 mM ZnSO4 plus 5% sucrose. PL was given intraperitoneally (i.p.) at 30, 150 or 300 μg/kg. The animals were hydrodynamically injected with pPK9a plasmid containing TGF-β1 gene through tail vein and simultaneously fed with ZnSO4(25 mM) and PL as reported. After 48 h, the mice were sacrificed for liver sections.
(§3) […] of plasmid (pPK9a) was dissolved in 3.0 ml Ringer's solution and injected in bolus into the tail vein in a short duration of 5˜7 seconds according to the hydrodynamics-based transfection protocol as described. ZnSO4(25 mM) was dissolved in the drinking water to activate the metallothionein promoter and stimulate TGF-β1 expression.
Mouse liver tissues were embedded in an optimal cutting temperature compound (Miles Inc.) and frozen in liquid nitrogen. […]

p-Smad2/3 = test: TGF-β-induced p-Smad2/3 and Smad4 translocation into nucleus (Western blot, immunocytostaining); format: cell-based
Excerpt: Translocation of phosphorylated Smad complexes into nucleus is one of the key steps in signal transduction of the liver fibrosis. In activated HSC there is an elevated accumulation of p-Smad2/3 and Smad4 in nucleus. To understand how PL regulates Smad signaling pathway, we first determined the amount of Smad complexes using Western blot.

Sp1 = Sp1 binding activity (EMSA) in liver of pPK9a-transferred mice fed with ZnSO4 water; format: in vivo, mouse; details: TGF-β1-induced increase
Description: as §2, §3
Since Sp1 is a critical mediator of Col 1A2 expression, we examined the effects of PL on Sp1 binding activity in pPK9a-transferred mice fed with ZnSO4 water.

`CC1=C(/C=C/C(C)=C/C=C/C(C)=C/C(=O)O)C(C)(C)CCC1` [PL] was tested, and the “ROS generated by TGF-β1” value [1] was “sufficiently eliminate the ROS generated by TGF-β1 in a dose-dependent manner”, the “intracellular calcium [Ca2+]i” value [2] was “significantly reduced” and the α-SMA expression (α-SMA [3]) was “significantly reduced”. For the same compound, the “expression of Col 1A2” value (collagen (Col 1A2)) was 0.001%, the “α-SMA expression in liver tissue” value (α-SMA [4]) was “markedly inhibited” and the “amount of p-Smad2/3 in the cell nucleus” value (p-Smad2/3; Western blot) was “decreased the amount of p-Smad2/3 in the cell nucleus in a dose-dependent manner”. The “transport of p-Smad2/3 into cell nucleus” value (p-Smad2/3; immunocytostaining) was “decreased the transport of p-Smad2/3 into cell nucleus also in a dose-dependent manner” and the Sp1 binding activity (Sp1) was “the increase was reversed by PL treatment”.
